Experimental data published in PubChem BioAssay (NCI).
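48-hour exposure; five concentrations; linearly interpolated endpoints. GI50 = concentration required for 50% inhibition of growth. At the TGI there is no net growth.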

system: UACC-62 melanoma; test: NCI anticancer screen, dose series, 48 h

Row | SMILES | TGI [µM] | GI50 [µM]
1 | CCc1n[nH]c(=O)n1-c1ccc2ccccc2c1 | > 100 | 
2 | CSc1nc2c(c(N(C)C)n1)C(O)n1c(nc3ccccc31)S2 (stereo not given) | > 100 | 
3 | COc1ccc(-c2nc3ccccc3c(=S)n2OC(C)=O)cc1 | > 25 | 
4 | C=C1C(=O)[C@@]23CC[C@@H]4[C@@]5(C)CCC[C@@]4(OC5=O)[C@@]2(C)CC[C@@H]1C3 | 3.3 | 
5 | CCCCOCCOC1=C(Cl)C(=O)c2c(O)ccc(O)c2C1=O | 2.64 | 
6 | CCN(CC)c1ccc(/C=C/c2ccnc3ccccc23)cc1 | > 100 | 
7 | COc1ccc(C(=O)NCCN(C)C)c2nc3ccccc3cc12 | 4.62 | 
8 | CCN(C(=O)N[C@@H](C)C(=O)N[C@@H](Cc1ccccc1)C(=O)OC)c1ccccc1 | > 100 | 
9 | O=C(CCSC1=NCCCN1)c1ccc(F)cc1 | 32.9 | 
10 | CCOc1c(OC)cc(-c2nc3n(n2)C(=O)C(CC)S3)cc1OC (stereo not given) | > 10 | 
11 | CC1OC(O[C@H]2C3C=CO[C@@H](OC4OC(CO)C(O)C(O)C4O)C3[C@@]3(COC(=O)/C=C/c4ccccc4)O[C@@H]23)C(O)C(O)C1O (stereo not given in full) | > 100 | 
12 | O=C1C(=Nc2ccc(Nc3ccccc3)cc2)Oc2ccccc21 | 10.7 | 
13 | Cc1nc2ccccc2c(-n2cccn2)c1CCn1cccn1 | > 100 | 
14 | COc1cc2c(cc1OCCCCCN1CCN(c3ncnc4ccccc34)CC1)N=CC1CCCN1C2=O (stereo not given) | 0.0383 | 0.0196
15 | C/C1=C\[C@H](C)C[C@H](C)OC(=O)[C@H](C)NC(=O)[C@@H](Cc2ccc(O)c(Br)c2)N(C)C(=O)[C@H](C)NC(=O)[C@@H](C)C1 | > 25 | 
16 | COc1cc2c(cc1OCCCN1C(=O)c3cccc4cccc(c34)C1=O)N=C[C@@H]1CCCN1C2=O | > 100 | 
17 | COC(=O)c1ccccc1CC1Cc2cccc(C)c2C1=O (stereo not given) | 98.1 | 
18 | COc1ccc(/C=N/NC(=O)c2ccc(O)c(CN(C)C)c2)cc1 | > 100 | 

system: HOP-62 NSCLC; test: NCI anticancer screen, dose series, 48 h

Row | SMILES | TGI [µM] | GI50 [µM]
19 | CCc1n[nH]c(=O)n1-c1ccc2ccccc2c1 | > 100 | 
20 | CSc1nc2c(c(N(C)C)n1)C(O)n1c(nc3ccccc31)S2 (stereo not given) | 69.1 | 
21 | COc1ccc(-c2nc3ccccc3c(=S)n2OC(C)=O)cc1 | > 25 | 
22 | C=C1C(=O)[C@@]23CC[C@@H]4[C@@]5(C)CCC[C@@]4(OC5=O)[C@@]2(C)CC[C@@H]1C3 | > 23.7 | 
23 | CCCCOCCOC1=C(Cl)C(=O)c2c(O)ccc(O)c2C1=O | 2.49 | 
24 | CCN(CC)c1ccc(/C=C/c2ccnc3ccccc23)cc1 | > 100 | 
25 | COc1ccc(C(=O)NCCN(C)C)c2nc3ccccc3cc12 | 2.72 | 
26 | CCN(C(=O)N[C@@H](C)C(=O)N[C@@H](Cc1ccccc1)C(=O)OC)c1ccccc1 | > 100 | 
27 | O=C(CCSC1=NCCCN1)c1ccc(F)cc1 | > 68.9 | 
28 | CCOc1c(OC)cc(-c2nc3n(n2)C(=O)C(CC)S3)cc1OC (stereo not given) | > 10 | 
29 | CC1OC(O[C@H]2C3C=CO[C@@H](OC4OC(CO)C(O)C(O)C4O)C3[C@@]3(COC(=O)/C=C/c4ccccc4)O[C@@H]23)C(O)C(O)C1O (stereo not given in full) | > 100 | 
30 | O=C1C(=Nc2ccc(Nc3ccccc3)cc2)Oc2ccccc21 | 22 | 
31 | Cc1nc2ccccc2c(-n2cccn2)c1CCn1cccn1 | > 100 | 
32 | COc1cc2c(cc1OCCCCCN1CCN(c3ncnc4ccccc34)CC1)N=CC1CCCN1C2=O (stereo not given) | 0.358 | 0.0257
33 | C/C1=C\[C@H](C)C[C@H](C)OC(=O)[C@H](C)NC(=O)[C@@H](Cc2ccc(O)c(Br)c2)N(C)C(=O)[C@H](C)NC(=O)[C@@H](C)C1 | 0.112 | 
34 | COc1cc2c(cc1OCCCN1C(=O)c3cccc4cccc(c34)C1=O)N=C[C@@H]1CCCN1C2=O | > 100 | 
35 | COC(=O)c1ccccc1CC1Cc2cccc(C)c2C1=O (stereo not given) | > 100 | 
36 | COc1ccc(/C=N/NC(=O)c2ccc(O)c(CN(C)C)c2)cc1 | > 100 | 

system: MCF7 breast; test: NCI anticancer screen, dose series, 48 h

Row | SMILES | TGI [µM] | GI50 [µM]
37 | CCc1n[nH]c(=O)n1-c1ccc2ccccc2c1 | > 100 | 
38 | CSc1nc2c(c(N(C)C)n1)C(O)n1c(nc3ccccc31)S2 (stereo not given) | > 100 | 
39 | COc1ccc(-c2nc3ccccc3c(=S)n2OC(C)=O)cc1 | > 25 | 
40 | C=C1C(=O)[C@@]23CC[C@@H]4[C@@]5(C)CCC[C@@]4(OC5=O)[C@@]2(C)CC[C@@H]1C3 | 2.21 | 
41 | CCCCOCCOC1=C(Cl)C(=O)c2c(O)ccc(O)c2C1=O | 2.04 | 
42 | CCN(CC)c1ccc(/C=C/c2ccnc3ccccc23)cc1 | > 100 | 
43 | COc1ccc(C(=O)NCCN(C)C)c2nc3ccccc3cc12 | 3.99 | 
44 | CCN(C(=O)N[C@@H](C)C(=O)N[C@@H](Cc1ccccc1)C(=O)OC)c1ccccc1 | > 100 | 
45 | O=C(CCSC1=NCCCN1)c1ccc(F)cc1 | 20.4 | 
46 | CCOc1c(OC)cc(-c2nc3n(n2)C(=O)C(CC)S3)cc1OC (stereo not given) | > 10 | 
47 | CC1OC(O[C@H]2C3C=CO[C@@H](OC4OC(CO)C(O)C(O)C4O)C3[C@@]3(COC(=O)/C=C/c4ccccc4)O[C@@H]23)C(O)C(O)C1O (stereo not given in full) | > 100 | 
48 | O=C1C(=Nc2ccc(Nc3ccccc3)cc2)Oc2ccccc21 | 5.74 | 
49 | Cc1nc2ccccc2c(-n2cccn2)c1CCn1cccn1 | > 100 | 
50 | COc1cc2c(cc1OCCCCCN1CCN(c3ncnc4ccccc34)CC1)N=CC1CCCN1C2=O (stereo not given) | 0.923 | 0.0162
51 | C/C1=C\[C@H](C)C[C@H](C)OC(=O)[C@H](C)NC(=O)[C@@H](Cc2ccc(O)c(Br)c2)N(C)C(=O)[C@H](C)NC(=O)[C@@H](C)C1 | > 25 | 
52 | COc1cc2c(cc1OCCCN1C(=O)c3cccc4cccc(c34)C1=O)N=C[C@@H]1CCCN1C2=O | > 56.7 | 
53 | COC(=O)c1ccccc1CC1Cc2cccc(C)c2C1=O (stereo not given) | 56.1 | 
54 | COc1ccc(/C=N/NC(=O)c2ccc(O)c(CN(C)C)c2)cc1 | > 100 | 

system: UACC-257 melanoma; test: NCI anticancer screen, dose series, 48 h

Row | SMILES | TGI [µM] | GI50 [µM]
55 | CCc1n[nH]c(=O)n1-c1ccc2ccccc2c1 | > 100 | 
56 | CSc1nc2c(c(N(C)C)n1)C(O)n1c(nc3ccccc31)S2 (stereo not given) | > 100 | 
57 | COc1ccc(-c2nc3ccccc3c(=S)n2OC(C)=O)cc1 | > 25 | 
58 | C=C1C(=O)[C@@]23CC[C@@H]4[C@@]5(C)CCC[C@@]4(OC5=O)[C@@]2(C)CC[C@@H]1C3 | 4.06 | 
59 | CCCCOCCOC1=C(Cl)C(=O)c2c(O)ccc(O)c2C1=O | 1.15 | 
60 | CCN(CC)c1ccc(/C=C/c2ccnc3ccccc23)cc1 | > 100 | 
61 | COc1ccc(C(=O)NCCN(C)C)c2nc3ccccc3cc12 | 4.02 | 
62 | CCN(C(=O)N[C@@H](C)C(=O)N[C@@H](Cc1ccccc1)C(=O)OC)c1ccccc1 | > 100 | 
63 | O=C(CCSC1=NCCCN1)c1ccc(F)cc1 | 36.5 | 
64 | CCOc1c(OC)cc(-c2nc3n(n2)C(=O)C(CC)S3)cc1OC (stereo not given) | > 10 | 
65 | CC1OC(O[C@H]2C3C=CO[C@@H](OC4OC(CO)C(O)C(O)C4O)C3[C@@]3(COC(=O)/C=C/c4ccccc4)O[C@@H]23)C(O)C(O)C1O (stereo not given in full) | > 100 | 
66 | O=C1C(=Nc2ccc(Nc3ccccc3)cc2)Oc2ccccc21 | 4.56 | 
67 | Cc1nc2ccccc2c(-n2cccn2)c1CCn1cccn1 | > 100 | 
68 | COc1cc2c(cc1OCCCCCN1CCN(c3ncnc4ccccc34)CC1)N=CC1CCCN1C2=O (stereo not given) | 0.568 | 0.0738
69 | C/C1=C\[C@H](C)C[C@H](C)OC(=O)[C@H](C)NC(=O)[C@@H](Cc2ccc(O)c(Br)c2)N(C)C(=O)[C@H](C)NC(=O)[C@@H](C)C1 | 14.8 | 
70 | COc1cc2c(cc1OCCCN1C(=O)c3cccc4cccc(c34)C1=O)N=C[C@@H]1CCCN1C2=O | > 100 | 
71 | COC(=O)c1ccccc1CC1Cc2cccc(C)c2C1=O (stereo not given) | 73.3 | 
72 | COc1ccc(/C=N/NC(=O)c2ccc(O)c(CN(C)C)c2)cc1 | > 100 | 

system: HCT-15 colon; test: NCI anticancer screen, dose series, 48 h

Row | SMILES | TGI [µM] | GI50 [µM]
73 | CCc1n[nH]c(=O)n1-c1ccc2ccccc2c1 | > 100 | 
74 | CSc1nc2c(c(N(C)C)n1)C(O)n1c(nc3ccccc31)S2 (stereo not given) | > 100 | 
75 | COc1ccc(-c2nc3ccccc3c(=S)n2OC(C)=O)cc1 | > 25 | 
76 | C=C1C(=O)[C@@]23CC[C@@H]4[C@@]5(C)CCC[C@@]4(OC5=O)[C@@]2(C)CC[C@@H]1C3 | 2.44 | 
77 | CCCCOCCOC1=C(Cl)C(=O)c2c(O)ccc(O)c2C1=O | 0.331 | 
78 | CCN(CC)c1ccc(/C=C/c2ccnc3ccccc23)cc1 | > 100 | 
79 | COc1ccc(C(=O)NCCN(C)C)c2nc3ccccc3cc12 | 7.22 | 
80 | CCN(C(=O)N[C@@H](C)C(=O)N[C@@H](Cc1ccccc1)C(=O)OC)c1ccccc1 | > 100 | 
81 | O=C(CCSC1=NCCCN1)c1ccc(F)cc1 | 36.2 | 
82 | CCOc1c(OC)cc(-c2nc3n(n2)C(=O)C(CC)S3)cc1OC (stereo not given) | > 10 | 
83 | CC1OC(O[C@H]2C3C=CO[C@@H](OC4OC(CO)C(O)C(O)C4O)C3[C@@]3(COC(=O)/C=C/c4ccccc4)O[C@@H]23)C(O)C(O)C1O (stereo not given in full) | > 100 | 
84 | O=C1C(=Nc2ccc(Nc3ccccc3)cc2)Oc2ccccc21 | 13.2 | 
85 | Cc1nc2ccccc2c(-n2cccn2)c1CCn1cccn1 | > 100 | 
86 | COc1cc2c(cc1OCCCCCN1CCN(c3ncnc4ccccc34)CC1)N=CC1CCCN1C2=O (stereo not given) | 4.09 | 0.206
87 | C/C1=C\[C@H](C)C[C@H](C)OC(=O)[C@H](C)NC(=O)[C@@H](Cc2ccc(O)c(Br)c2)N(C)C(=O)[C@H](C)NC(=O)[C@@H](C)C1 | > 25 | 
88 | COc1cc2c(cc1OCCCN1C(=O)c3cccc4cccc(c34)C1=O)N=C[C@@H]1CCCN1C2=O | > 77.9 | 
89 | COC(=O)c1ccccc1CC1Cc2cccc(C)c2C1=O (stereo not given) | 73.3 | 
90 | COc1ccc(/C=N/NC(=O)c2ccc(O)c(CN(C)C)c2)cc1 | > 100 | 
